Columns and labels:
[1] = molecular target: T1, human sphingosine-1-phosphate receptor 1 (S1P1) (Homo sapiens (Human), UniProt P21453); assay: β-Arrestin2 recruitment assay (PathHunter), S1P1 CHO-K1 cells; format: cell-based; conditions: for hS1P1 B-arrestin2 pEC50: β-arrestin2 recruitment, S1P1 CHO-K1 cells; for Emax: CHO-K1, efficacy (SPAN) normalized to fingolimod, read-out: hS1P1 B-arrestin2 SPAN
In short: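 Enzyme-fragment complementation read-out: agonist-driven β-arrestin2 binding to ProLink-tagged human S1P1 in stable CHO-K1 cells restores β-galactosidase, measured 1 h at room temperature after a 60 min 37° C. compound incubation. Potency as pEC50, efficacy relative to fingolimod (SPAN).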
Target sequence in this assay (P21453 whole entry, looked up, the tested form may be a part): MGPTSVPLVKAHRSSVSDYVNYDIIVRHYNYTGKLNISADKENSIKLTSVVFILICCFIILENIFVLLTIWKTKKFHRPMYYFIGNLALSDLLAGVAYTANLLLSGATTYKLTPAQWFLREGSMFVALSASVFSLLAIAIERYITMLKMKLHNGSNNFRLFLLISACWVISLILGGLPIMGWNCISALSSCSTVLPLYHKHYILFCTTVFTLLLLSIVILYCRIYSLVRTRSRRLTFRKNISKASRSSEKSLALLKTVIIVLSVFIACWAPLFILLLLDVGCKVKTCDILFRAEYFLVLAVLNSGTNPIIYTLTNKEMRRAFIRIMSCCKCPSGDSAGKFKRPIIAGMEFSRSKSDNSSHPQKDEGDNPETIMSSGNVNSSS
Target sequence in this assay (P32121 whole entry partner, looked up, the tested form may be a part): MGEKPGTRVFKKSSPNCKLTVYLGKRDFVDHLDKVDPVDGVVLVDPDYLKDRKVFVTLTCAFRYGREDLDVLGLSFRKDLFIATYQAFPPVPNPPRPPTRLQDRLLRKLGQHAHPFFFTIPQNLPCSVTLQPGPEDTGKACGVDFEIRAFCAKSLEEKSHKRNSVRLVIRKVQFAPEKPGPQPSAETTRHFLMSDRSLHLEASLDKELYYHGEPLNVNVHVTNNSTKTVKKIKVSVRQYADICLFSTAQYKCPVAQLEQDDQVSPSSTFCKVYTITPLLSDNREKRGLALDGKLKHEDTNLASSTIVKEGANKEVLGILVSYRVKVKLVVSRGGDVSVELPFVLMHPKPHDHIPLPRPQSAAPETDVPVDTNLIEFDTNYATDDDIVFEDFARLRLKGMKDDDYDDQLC

[2] = molecular target: T1, human sphingosine-1-phosphate receptor 1 (S1P1); assay: Inhibition of cAMP production (HTRF cAMP HiRange), S1P1 CHO-K1 cells; format: cell-based; conditions: for hS1P1 cAMP pEC50: inhibition of cAMP production, S1P1 CHO-K1 cells; for Emax: CHO-K1, efficacy (SPAN) normalized to fingolimod, read-out: hS1P1 cAMP SPAN
In short: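 CHO-K1 cells stably co-expressing human S1P1 (C-terminal Prolink tag) and EA-β-arrestin2 were grown in AssayComplete Media 6 at 37° C. and 5% CO2, plated, and incubated overnight. Agonist-driven inhibition of intracellular cAMP was read by TR-FRET with the HTRF cAMP HiRange kit on a PheraStar reader. Potency is pEC50, and efficacy (SPAN) is normalized to fingolimod.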
Target sequence in this assay (P21453 whole entry, looked up, the tested form may be a part): as the sequence (P21453 whole entry, looked up, the tested form may be a part) above

SMILES	hS1P1 B-arrestin2 pEC50 [1]	hS1P1 cAMP pEC50 [2]	Emax [1]	Emax [2]
CCCCC1CC(=O)c2ccc(-c3nc(-c4cccnc4)no3)cc2O1 (stereo not drawn) [Compound 633, 2-butyl-7-[3-(pyridin-3-yl)-1,2,4-oxadiazol-5-yl]-3,4-dihydro-2H-1-benzopyran-4-one]	<5	<6.5	–	–
Cc1ccccc1-c1noc(-c2ccc3c(c2)nnn3CC(F)F)n1 [Compound 182, 1-(2,2-difluoroethyl)-5-[3-(2-methylphenyl)-1,2,4-oxadiazol-5-yl]-1H-1,2,3-benzotriazole]	>5	>6.5	< 75%	> 75%
CCC1(CC)CC(=O)c2cc(-c3nc(-c4sccc4C)no3)ccc2O1 [Compound 265, 2,2-diethyl-6-(3-(3-methylthiophen-2-yl)-1,2,4-oxadiazol-5-yl)chroman-4-one]	>5	>6.5	< 75%	> 75%
c1ccc(-c2noc(-c3ccc4[nH]nnc4c3)n2)cc1 [Compound 113, 5-(3-phenyl-1,2,4-oxadiazol-5-yl)-1H-1,2,3-benzotriazole]	<5	<6.5	–	–
COC(=O)CCn1nnc2cc(-c3noc(-c4ccccc4Br)n3)ccc21 [Compound 161, methyl 3-(5-(5-(2-bromophenyl)-1,2,4-oxadiazol-3-yl)-1H-benzo[d][1,2,3]triazol-1-yl)propanoate]	<5	<6.5	–	–
O=C1c2cc(-c3nc(-c4ccncc4)no3)ccc2OC(CO)(CO)C1Br (stereo not drawn) [Compound 483, 3-bromo-2,2-bis(hydroxymethyl)-6-[3-(pyridin-4-yl)-1,2,4-oxadiazol-5-yl]-3,4-dihydro-2H-1-benzopyran-4-one]	<5	<6.5	–	–
CCC1(CC)CC(=O)c2cc(-c3nnc(-c4ccccc4OC)s3)ccc2O1 [Compound 178, 2,2-diethyl-6-(5-(2-methoxyphenyl)-1,3,4-thiadiazol-2-yl)chroman-4-one]	>5	<6.5	< 75%	> 75%
c1ccc(-c2noc(-c3ccc4c(c3)nnn4C3CCCCC3)n2)cc1 [Compound 292, 1-cyclohexyl-5-(3-phenyl-1,2,4-oxadiazol-5-yl)-1H-1,2,3-benzotriazole]	<5	<6.5	< 75%	< 75%
C=CCn1nnc2cc(-c3nc(-c4ccccc4)no3)ccc21 [Compound 270, 5-(3-phenyl-1,2,4-oxadiazol-5-yl)-1-(prop-2-en-1-yl)-1H-1,2,3-benzotriazole]	<5	<6.5	–	–
CC1(C)Oc2ccc(-c3nc(-c4ccncc4)no3)cc2C1=O [Compound 480, 2,2-dimethyl-5-[3-(pyridin-4-yl)-1,2,4-oxadiazol-5-yl]-2,3-dihydro-1-benzofuran-3-one]	<5	<6.5	–	–
CCC1CC(=O)c2ccc(-c3nc(-c4cccnc4)no3)cc2O1 (stereo not drawn) [Compound 588, 2-ethyl-7-[3-(pyridin-3-yl)-1,2,4-oxadiazol-5-yl]-3,4-dihydro-2H-1-benzopyran-4-one]	<5	<6.5	–	–
CC(C)Oc1ccc(-c2ncc(-c3ccc4c(c3)nnn4C(C)C)cn2)cc1C#N [Compound 595, 2-isopropoxy-5-(5-(1-isopropyl-1H-benzo[d][1,2,3]triazol-5-yl)pyrimidin-2-yl)benzonitrile]	>5	>6.5	–	–
COc1cc(NC(C)=O)ccc1-c1nc(-c2ccncc2)no1 [Compound 582, N-{3-methoxy-4-[3-(pyridin-4-yl)-1,2,4-oxadiazol-5-yl]phenyl}acetamide]	<5	<6.5	–	–
Cc1ccncc1-c1noc(-c2ccc3c(c2)NC(=O)CN3)n1 [Compound 613, 7-[3-(4-methylpyridin-3-yl)-1,2,4-oxadiazol-5-yl]-1,2,3,4-tetrahydroquinoxalin-2-one]	<5	<6.5	–	–
CC(C)n1nnc2cc(-c3nc(-c4ccncc4)no3)ccc21 [Compound 244, 1-(propan-2-yl)-5-[3-(pyridin-4-yl)-1,2,4-oxadiazol-5-yl]-1H-1,2,3-benzotriazole]	>5	>6.5	> 75%	> 75%
CC(C)n1nnc2cc(-c3nc4ccncc4o3)ccc21 [Compound 503, 2-(1-isopropyl-1H-benzo[d][1,2,3]triazol-5-yl)oxazolo[5,4-c]pyridine]	<5	<6.5	> 75%	> 75%

SMILES	hS1P1 B-arrestin2 pEC50 [1]	hS1P1 cAMP pEC50 [2]	Emax [1]	Emax [2]
Cc1ccccc1-c1noc(-c2ccc3c(c2)CCC(=O)N3C)n1 [Compound 367, 1-methyl-6-[3-(2-methylphenyl)-1,2,4-oxadiazol-5-yl]-1,2,3,4-tetrahydroquinolin-2-one]	<5	<6.5	–	–
CC(C)n1nnc2cc(-c3noc(-c4cccc(F)c4)n3)ccc21 [Compound 64, 5-(3-fluorophenyl)-3-(1-isopropylbenzotriazol-5-yl)-1,2,4-oxadiazole]	<5	>6.5	–	–
CCC1(CC)CC(=O)c2cc(-c3nc(-c4ccc[nH]4)no3)ccc2O1 [Compound 464, 6-(3-(1H-pyrrol-2-yl)-1,2,4-oxadiazol-5-yl)-2,2-diethylchroman-4-one]	<5	>6.5	–	–
Brc1ccccc1-c1noc(-c2ccc3[nH]nnc3c2)n1 [Compound 190, 5-[3-(2-bromophenyl)-1,2,4-oxadiazol-5-yl]-1H-1,2,3-benzotriazole]	<5	<6.5	< 75%	< 75%
O=C1CCOc2ccc(-c3nc(-c4ccncc4)no3)cc21 [Compound 57, 6-[3-(pyridin-4-yl)-1,2,4-oxadiazol-5-yl]-3,4-dihydro-2H-1-benzopyran-4-one]	<5	<6.5	–	–
CC(C)Oc1ccc(-c2nc(-c3ccc4c(c3)nnn4C3CCCC3)no2)cc1C(F)(F)F [Compound 14, 3-(1-cyclopentyl-1H-benzo[d][1,2,3]triazol-5-yl)-5-(4-isopropoxy-3-(trifluoromethyl)phenyl)-1,2,4-oxadiazole]	>5	>6.5	< 75%	< 75%
c1cc(-c2noc(-c3ccc4c(c3)nnn4C3CC3)n2)ccn1 [Compound 295, 1-cyclopropyl-5-[3-(pyridin-4-yl)-1,2,4-oxadiazol-5-yl]-1H-1,2,3-benzotriazole]	<5	<6.5	< 75%	> 75%
O=C1CC2(CCC(F)(F)CC2)Oc2ccc(-c3nc(-c4cccnc4)no3)cc21 [Compound 36, 4′,4′-difluoro-6-[3-(pyridin-3-yl)-1,2,4-oxadiazol-5-yl]-3,4-dihydrospiro[1-benzopyran-2,1′-cyclohexane]-4-one]	<5	<6.5	< 75%	< 75%
Brc1ccccc1-c1nc(-c2ccc3c(c2)nnn3CC2CC2)no1 [Compound 98, 5-(2-bromophenyl)-3-(1-(cyclopropylmethyl)-1H-benzo[d][1,2,3]triazol-5-yl)-1,2,4-oxadiazole]	>5	<6.5	> 75%	> 75%
CCC1(CC)CC(=O)c2cc(-c3nc(-c4cncc(NC(C)=O)c4)no3)ccc2O1 [Compound 538, N-(5-(5-(2,2-diethyl-4-oxochroman-6-yl)-1,2,4-oxadiazol-3-yl)pyridin-3-yl)acetamide]	>5	>6.5	–	–
Cc1ccccc1-c1noc(-c2ccc3scnc3c2)n1 [Compound 362, 5-[3-(2-methylphenyl)-1,2,4-oxadiazol-5-yl]-1,3-benzothiazole]	<5	<6.5	–	–
Cc1ncc(-c2nc(-c3ccc4c(c3)nnn4C(C)C)no2)nc1C [Compound 133, 5-(5,6-dimethylpyrazin-2-yl)-3-(1-isopropyl-1H-benzo[d][1,2,3]triazol-5-yl)-1,2,4-oxadiazole]	<5	<6.5	< 75%	< 75%
CC(C)n1nnc2cc(-c3nc(-c4ccc(Oc5ccccc5)cc4)no3)ccc21 [Compound 15, 5-[3-(4-phenoxyphenyl)-1,2,4-oxadiazol-5-yl]-1-(propan-2-yl)-1H-1,2,3-benzotriazole]	<5	<6.5	–	–
COc1cccc(OC)c1-c1noc(-c2ccc3c(ccn3C(C)C)c2)n1 [Compound 325, 3-(2,6-dimethoxyphenyl)-5-(1-isopropylindol-5-yl)-1,2,4-oxadiazole]	<5	<6.5	< 75%	< 75%
COc1ccc(-c2noc(-c3ccc4c(c3)nnn4C3CCCC3)n2)c2ccccc12 [Compound 91, 1-cyclopentyl-5-[3-(4-methoxynaphthalen-1-yl)-1,2,4-oxadiazol-5-yl]-1H-1,2,3-benzotriazole]	<5	<6.5	< 75%	< 75%

— patent US11912693B2, “Compounds for modulating S1P1 activity and methods of using the same” (TREVENA, INC., priority 2017, dated 2024)
